The supplement of paper PMC8253809

Experiments:
Test in all cases: growth inhibition relative to DMSO (0) and positive control (1) (fraction); higher = more growth inhibition
DIPGX29 = system: DIPGX29 (H3.3 K27M diffuse intrinsic pontine glioma line)
Method: (§1)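 Single-agent arm (compound 1 only) of the paxalisib / mirdametinib dose-matrix plates, 7 days, adherent 384-well. CellTiter-Glo RLU was normalised to fractional activity between DMSO (0) and the positive control (1).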

iASTRO = system: iASTRO (astrocyte control)
Method: as §1

HGGX42 = system: HGGX42 (H3.3 G34R paediatric high-grade glioma line)
Method: as §1

DIPGX37 = system: DIPGX37 (H3.3 K27M diffuse intrinsic pontine glioma line)
Method: as §1

HABS = system: HABS (astrocyte control)
Method: as §1

DIPGX7 = system: DIPGX7 (H3.3 K27M diffuse intrinsic pontine glioma line)
Method: as §1

HGGX6 = system: HGGX6 (H3.3 G34R paediatric high-grade glioma line)
Method: as §1

CC1(C)OCCn2c1nc1c(N3CCOCC3)nc(-c3cnc(N)nc3)nc12 [GDC0084]
growth inhibition
Conditions	0.009766 µM	0.01953 µM	0.03906 µM	0.07812 µM	0.15625 µM	0.3125 µM	0.625 µM	1.25 µM	5 µM	20 µM
DIPGX7	0.0627	0.0708	0.104	0.186	0.381	0.622	0.771	0.8548	0.9176	0.977
DIPGX29	–	–	–	–	–	–	–	0.595	0.8914	0.9212
DIPGX37	-0.0429	-0.0173	0.0381	0.138	0.304	0.453	0.566	0.71	0.9509	0.9986
HABS	0.075	0.0784	0.0871	0.118	0.171	0.208	0.326	0.489	0.807	0.9807
HGGX6	-0.0247	-0.0158	0.0132	0.0493	0.125	0.232	0.359	0.507	0.758	0.869
HGGX42	0.0532	0.0705	0.164	0.226	0.378	0.528	0.685	0.777	0.885	0.913
iASTRO	0.019	0.0114	0.00198	0.00243	0.00554	-0.0144	-0.0681	-0.0251	0.577	0.706
